Measured values published in patent US8535901B2, “Peptidase substrates” (bioMérieux, S.A., priority 2009, dated 2013).
Values belong to the molecule of their own block, whether it stands above or below them.

Key:
Format in all cases: cell-based
[1] = test system: Citrobacter freundii NCTC 9750; assay: Colony color on lactose/sucrose agar medium with pH indicator; conditions: indicator 0.05 g/l with lactose, sucrose and 5-bromo-4-chloro-3-indoxyl-β-D-glucopyranoside 0.05 g/l, 24 hours at 37° C., visual
Protocol: (§1) Seven strains of microorganisms originating from the NCTC collection and belonging to various species of bacteria are inoculated onto these media by quadrant streaking of 10 μl of a suspension at 0.5 McFarland diluted to a 1/20.

[2] = test system: Morganella morganii NCTC 235; assay: as above; conditions: indicator 0.05 g/l with lactose, sucrose and 5-bromo-4-chloro-3-indoxyl-β-D-glucopyranoside 0.05 g/l, 24 hours at 37° C., visual
Protocol: as §1

[3] = test system: Klebsiella pneumoniae NCTC 10 896; assay: as above; conditions: indicator 0.05 g/l with lactose, sucrose and 5-bromo-4-chloro-3-indoxyl-β-D-glucopyranoside 0.05 g/l, 24 hours at 37° C., visual
Protocol: as §1

[4] = test system: Enterobacter cloacae NCTC 11 936; assay: as above; conditions: indicator 0.05 g/l with lactose, sucrose and 5-bromo-4-chloro-3-indoxyl-β-D-glucopyranoside 0.05 g/l, 24 hours at 37° C., visual
Protocol: as §1

[5] = test system: Enterobacter aerogenes NCTC 10 102; assay: as above; conditions: indicator 0.05 g/l with lactose, sucrose and 5-bromo-4-chloro-3-indoxyl-β-D-glucopyranoside 0.05 g/l, 24 hours at 37° C., visual
Protocol: as §1

[6] = test system: Shigella boydii NCTC 9327; assay: as above; conditions: indicator 0.05 g/l with lactose, sucrose and 5-bromo-4-chloro-3-indoxyl-β-D-glucopyranoside 0.05 g/l, 24 hours at 37° C., visual
Protocol: as §1

[7] = test system: Escherichia coli NCTC 12 076; assay: as above; conditions: indicator 0.05 g/l with lactose, sucrose and 5-bromo-4-chloro-3-indoxyl-β-D-glucopyranoside 0.05 g/l, 24 hours at 37° C., visual
Protocol: as §1

[8] = test system: Escherichia coli NCTC 10 418; assay: Peptidase detection on Columbia medium with substrate; parameters: key to Grow. (growth): NG: No growth; 0.5: weak growth; 1: moderate growth; 2: good growth; conditions: 40 mg substrate in 400 ml Columbia medium, 24 hours at 37° C.
Protocol: (§2) The 6 media were distributed into Petri dishes 90 mm in diameter, in a proportion of 20 ml per dish.
(§3) Seventeen strains of microorganisms stemming from collections and belonging to various species of bacteria and yeasts are inoculated in spots of approximately 10 000 colony-forming units.
(§4) The media are incubated for 24 hours at 37° C., and then the colonies formed are examined visually, with or without the addition of acid and under a UV lamp at 365 nm.

[9] = test system: Yersinia enterocolitica NCTC 11 176; assay: as above; parameters: key to Grow. (growth): NG: No growth; 0.5: weak growth; 1: moderate growth; 2: good growth; conditions: 40 mg substrate in 400 ml Columbia medium, 24 hours at 37° C.
Protocol: as §2, §3, §4

[10] = test system: Staphylococcus aureus NCTC 6 571; assay: as above; parameters: key to Grow. (growth): NG: No growth; 0.5: weak growth; 1: moderate growth; 2: good growth; conditions: 40 mg substrate in 400 ml Columbia medium, 24 hours at 37° C.
Protocol: as §2, §3, §4

[11] = test system: Providencia rettgeri NCTC 7 475; assay: as above; parameters: key to Grow. (growth): NG: No growth; 0.5: weak growth; 1: moderate growth; 2: good growth; conditions: 40 mg substrate in 400 ml Columbia medium, 24 hours at 37° C.
Protocol: as §2, §3, §4

[12] = test system: Candida albicans ATCC 90 028; assay: as above; parameters: key to Grow. (growth): NG: No growth; 0.5: weak growth; 1: moderate growth; 2: good growth; conditions: 40 mg substrate in 400 ml Columbia medium, 24 hours at 37° C.
Protocol: as §2, §3, §4

[13] = test system: Candida glabrata NCPF 3 943; assay: as above; parameters: key to Grow. (growth): NG: No growth; 0.5: weak growth; 1: moderate growth; 2: good growth; conditions: 40 mg substrate in 400 ml Columbia medium, 24 hours at 37° C.
Protocol: as §2, §3, §4

[14] = test system: Enterobacter cloacae NCTC 11 936; assay: as above; parameters: key to Grow. (growth): NG: No growth; 0.5: weak growth; 1: moderate growth; 2: good growth; conditions: 40 mg substrate in 400 ml Columbia medium, 24 hours at 37° C.
Protocol: as §2, §3, §4

[15] = test system: Enterococcus faecalis NCTC 775; assay: as above; parameters: key to Grow. (growth): NG: No growth; 0.5: weak growth; 1: moderate growth; 2: good growth; conditions: 40 mg substrate in 400 ml Columbia medium, 24 hours at 37° C.
Protocol: as §2, §3, §4

[16] = test system: Pseudomonas aeruginosa NCTC 10 662; assay: as above; parameters: key to Grow. (growth): NG: No growth; 0.5: weak growth; 1: moderate growth; 2: good growth; conditions: 40 mg substrate in 400 ml Columbia medium, 24 hours at 37° C.
Protocol: as §2, §3, §4

[17] = test system: Bacillus subtilis NCTC 9 372; assay: as above; parameters: key to Grow. (growth): NG: No growth; 0.5: weak growth; 1: moderate growth; 2: good growth; conditions: 40 mg substrate in 400 ml Columbia medium, 24 hours at 37° C.
Protocol: as §2, §3, §4

[18] = test system: Salmonella typhimurium NCTC 74; assay: as above; parameters: key to Grow. (growth): NG: No growth; 0.5: weak growth; 1: moderate growth; 2: good growth; conditions: 40 mg substrate in 400 ml Columbia medium, 24 hours at 37° C.
Protocol: as §2, §3, §4

[19] = test system: Serratia marcescens NCTC 10 211; assay: as above; parameters: key to Grow. (growth): NG: No growth; 0.5: weak growth; 1: moderate growth; 2: good growth; conditions: 40 mg substrate in 400 ml Columbia medium, 24 hours at 37° C.
Protocol: as §2, §3, §4

[20] = test system: Staphylococcus aureus NCTC 11 939; assay: as above; parameters: key to Grow. (growth): NG: No growth; 0.5: weak growth; 1: moderate growth; 2: good growth; conditions: 40 mg substrate in 400 ml Columbia medium, 24 hours at 37° C.
Protocol: as §2, §3, §4

[21] = test system: Enterococcus faecium NCTC 7 171; assay: as above; parameters: key to Grow. (growth): NG: No growth; 0.5: weak growth; 1: moderate growth; 2: good growth; conditions: 40 mg substrate in 400 ml Columbia medium, 24 hours at 37° C.
Protocol: as §2, §3, §4

[22] = test system: Staphylococcus epidermidis NCTC 11 047; assay: as above; parameters: key to Grow. (growth): NG: No growth; 0.5: weak growth; 1: moderate growth; 2: good growth; conditions: 40 mg substrate in 400 ml Columbia medium, 24 hours at 37° C.
Protocol: as §2, §3, §4

[23] = test system: Streptococcus pyogenes NCTC 8 306; assay: as above; parameters: key to Grow. (growth): NG: No growth; 0.5: weak growth; 1: moderate growth; 2: good growth; conditions: 40 mg substrate in 400 ml Columbia medium, 24 hours at 37° C.
Protocol: as §2, §3, §4

[24] = test system: Listeria monocytogenes NCTC 11 994; assay: as above; parameters: key to Grow. (growth): NG: No growth; 0.5: weak growth; 1: moderate growth; 2: good growth; conditions: 40 mg substrate in 400 ml Columbia medium, 24 hours at 37° C.
Protocol: as §2, §3, §4

Structure (SMILES): Nc1ccc(C=Cc2ccncc2)cc1 [4-4′-Aminostyrylpyridine, 4-(4′-Aminostyryl)pyridine]
Colony color [1]: Yellow
Colony color [2]: Colorless
Colony color [3]: Green
Colony color [4]: Green
Colony color [5]: Green
Colony color [6]: Colorless
Colony color [7]: Yellow

Grow. (growth) [14]: 2
Col. (colour of the colonies) ([14]; visual): Green
Grow. (growth) [15]: 2
Col. (colour of the colonies) ([15]; visual): Pale green
Grow. (growth) [16]: 2
Col. (colour of the colonies) ([16]; visual): Orange
Grow. (growth) [17]: 2
Col. (colour of the colonies) ([17]; visual): Pale green
Grow. (growth) [18]: 1
Col. (colour of the colonies) ([18]; visual): Pale green
Grow. (growth) [19]: 2
Col. (colour of the colonies) ([19]; visual): Orange
Grow. (growth) [21]: 2
Col. (colour of the colonies) ([21]; visual): Pale green
Grow. (growth) [23]: 1
Col. (colour of the colonies) ([23]; visual): Pale green
Grow. (growth) [24]: 2
Col. (colour of the colonies) ([24]; visual): Pale green
Structure (SMILES): C[n+]1ccc(C=Cc2ccc(NC(=O)CCN)cc2)cc1.[Cl-] [β-Ala-ASPM^+, β-Alanyl-4-(4′-amidostyryl)-N-methyl-pyridinium chloride]
Grow. (growth) [8]: 2
Col. (colour of the colonies) ([8]; visual): Green
Grow. (growth) [9]: 2
Col. (colour of the colonies) ([9]; visual): Pale green
Grow. (growth) [10]: 2
Col. (colour of the colonies) ([10]; visual): Green
Grow. (growth) [11]: 2
Col. (colour of the colonies) ([11]; visual): Green
Grow. (growth) [12]: 2
Col. (colour of the colonies) ([12]; visual): Pale green
Grow. (growth) [13]: 1
Col. (colour of the colonies) ([13]; visual): Pale green
Grow. (growth) [20]: 2
Col. (colour of the colonies) ([20]; visual): Green
Grow. (growth) [22]: 2
Col. (colour of the colonies) ([22]; visual): Green
